Measured values published in PMC4792161, “A novel pyrazole derivative protects from ovariectomy-induced osteoporosis through the inhibition of NADPH oxidase” (Scientific Reports, 2016).
Where a name gives a salt, the structure may show the parent alone. Marks after values point to notes of the source that are not given here.

What was measured:
[1] = tested on: OVX-induced osteoporotic ddY mice; assay: Right femur BMD by DEXA in OVX mice; type: in vivo; conditions: oral once daily 28 days
[2] = tested on: OVX-induced osteoporotic ddY mice; assay: Bone strength (failure load, three-point bending test) in OVX mice; type: in vivo; conditions: oral once daily 28 days; risedronate 2.5 mg/kg
[3] = tested on: OVX-induced osteoporotic ddY mice; assay: Femur histopathology-histomorphometry in OVX mice; type: in vivo
Experimental: Risedronate sodium (2.5 mg/kg) served as a reference compound. […] Histopathology and histomorphometrical analyses including trabecular bone volume (BV/TV), trabecular bone number (Tb.N), trabecular bone length (Tb.Le), trabecular bone thickness (Tb.Th), cortical bone thickness (Ct.Th), OC number (N.Oc), bone mineral density (BMD) and bone strength (failure load, FL) were conducted.
The study was reviewed and approved by the Institutional Animal Care and Use Committee (IACUC) of Center for Laboratory Animal Sciences, Ewha Industry-University Cooperation Foundation, Ewha Womans University. Experimental methods were carried out in accordance with the approved ethic guidelines in Ewha Industry-University Cooperation Foundation, Ewha Womans University. Beginning 4 weeks after OVX, the female ddY mice received 2.5, 5, 10, or 20 mg/kg of #18–278, 2.5 mg/kg of risedronate, or vehicle once daily for 28 days. The Changes in body weight, bone weight, bone mineral density (BMD), failure load (FL), bone calcium (Ca), inorganic phosphorus (P) contents, histology and histomorphology were monitored. Serum osteocalcin and bone specific alkaline phosphatase (bALP) were monitored in mice receiving Ewha-18278.
The left side of femur of each mouse was separated and fixed in 10% neutral buffered formalin and decalcified in a solution comprised of 24.4% formic acid and 0.5N sodium hydroxide for 5 days, with spent solution replaced with fresh solution each day. Each sample was embedded in paraffin, sectioned to a thickness of 3–4 μm and exposed to with Hematoxylin & Eosin (H&E) stain. Histomorphometry was conducted as for bone mass and structure with bone resorption in a uniform area of epiphyseal regions of femur (growth plate regions were excluded). Cortical bone thickness was measured in the mid-shaft region of the femur.

Pre-OCs = assay: OC fusion assay; type: cell-based, C57BL/6 mice; conditions: 10 μM, 24 hours
Experimental: Cells were stained for TRAP using a leukocyte acid phosphatase cytochemistry kit (Sigma-Aldrich, St. Louis, MO, USA) according to the manufacturer’s instructions. […]
Scale bar, 500 μm. (C,D) Mature OCs were generated with M-CSF and RANKL, cells were seeded onto dentine discs and further cultured with […]
Cells were stained with hematoxylin for visualization of pit formation (C). The area of resorption pits were measured with Image-Pro Plus 4.5 (D). Scale bar, 500
μm. Data represent mean ± S.D., n.s., not significant. […]

Mature OCs = assay: TUNEL assay, apoptosis of OCs; type: cell-based; conditions: 10 μM, absence or presence of RANKL
Experimental: Apoptotic cells were detected by the […] nick end labeling (TUNEL) assay In Situ Cell Death Detection Kit (Roche Applied Science, Basel, Switzerland) according to the manufacturer’s instructions. […] The percentage of positively stained cells was determined by counting the numbers of TUNEL labeled and DAPI stained cells. The experiments were repeated 3 times, and the mean values were calculated.
Supplementary Figure S5. […] Mature OCs were
generated with M-CSF and RANKL. Cells were washed with PBS and then treated with Ewha-18278
(10 μM) or DMSO with or without RANKL for 20 hours. Cells were subjected into TUNEL assay. Data […]

glucose oxidase = glucose oxidase (Aspergillus niger, UniProt P13006); assay: Glucose oxidase assay (lucigenin); type: biochemical
Experimental: Glucose oxidase activity was measured by lucigenin. Reaction mixtures contained 0.75 mM glucose, 0.25 mg/ml glucose oxidase, and 0.4 mM lucigenin with the indicated inhibitor (0–20μM). Luminescence was measured over 30 min at 37 °C with luminometor (DTX800, Beckman coulter).

[4] = Pharmacokinetics after IV and oral administration to rats; type: in vivo
Experimental: Supplementary Table S1. Pharmacokinetic parameters of Ewha-89403 following IV and oral administration at the doses of 1 mg/kg and 10 mg/kg, respectively, to rats (n=4-5) PK Parameters IV Injection Oral Administration
Absolute Bioavailability (BA) = 4.3 %
Supplementary Table S2. Pharmacokinetic parameters of Ewha-18278 following IV and oral administration at the doses of 2 mg/kg and 20 mg/kg, respectively, to rats (n=5-6) […]
Absolute Bioavailability (BA) = 63.8 %

[5] = 2.5 mg/kg oral once daily 28 days
[6] = 5 mg/kg oral once daily 28 days
[7] = 10 mg/kg oral once daily 28 days
[8] = 20 mg/kg oral once daily 28 days

Sequence of glucose oxidase (P13006 17-605, species assumed): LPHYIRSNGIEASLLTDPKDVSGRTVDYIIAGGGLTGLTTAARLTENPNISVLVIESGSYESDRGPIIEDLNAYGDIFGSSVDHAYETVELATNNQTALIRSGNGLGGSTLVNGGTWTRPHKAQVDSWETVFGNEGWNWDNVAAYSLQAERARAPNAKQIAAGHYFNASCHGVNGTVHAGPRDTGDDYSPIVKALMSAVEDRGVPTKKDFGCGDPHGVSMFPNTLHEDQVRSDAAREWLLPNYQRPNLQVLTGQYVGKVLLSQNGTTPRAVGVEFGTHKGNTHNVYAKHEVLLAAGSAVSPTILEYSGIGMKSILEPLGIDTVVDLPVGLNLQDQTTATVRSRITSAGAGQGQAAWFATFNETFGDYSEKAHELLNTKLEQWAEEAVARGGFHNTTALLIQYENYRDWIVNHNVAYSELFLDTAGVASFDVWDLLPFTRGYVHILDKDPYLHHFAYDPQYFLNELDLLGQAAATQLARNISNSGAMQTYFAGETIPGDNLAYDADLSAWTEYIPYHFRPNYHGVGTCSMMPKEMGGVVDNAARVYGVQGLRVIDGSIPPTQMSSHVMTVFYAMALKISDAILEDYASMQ

CCCc1c(-c2ccccc2)nn(-c2ccccn2)c1O [Ewha-18278, 3-phenyl-1-(pyridin-2-yl)-4-propyl-1H-5-hydroxypyrazole HCl]
BMD of femur compared to OVX control [1]: dramatic increased BMD
bone strength (FL) of femur and tibia compared to control OVX [2]: enhanced
BV/TV (trabecular bone volume) [3, 5]: 23.62 ± 3.63 ^a %
Ct.Th (cortical bone thickness) [3, 5]: 136.48 ± 10.32 ^a μm
N.OC/BS (osteoclast cell number, N/epiphyseal) [3, 5]: 13.75 ± 2.25 ^e numbers
Tb.N (trabecular bone number, N/epiphyseal) [3, 5]: 9.75 ± 1.67 ^e numbers
Tb.Th (trabecular bone thickness) [3, 5]: 40.98 ± 5.94 ^a μm
BV/TV (trabecular bone volume) [3, 6]: 29.06 ± 2.72 ^ac %
Ct.Th (cortical bone thickness) [3, 6]: 159.04 ± 13.45 ^ac μm
N.OC/BS (osteoclast cell number, N/epiphyseal) [3, 6]: 10.63 ± 2.77 ^eg numbers
Tb.N (trabecular bone number, N/epiphyseal) [3, 6]: 11.25 ± 1.04 ^eh numbers
Tb.Th (trabecular bone thickness) [3, 6]: 52.98 ± 8.96 ^ac μm
BV/TV (trabecular bone volume) [3, 7]: 33.63 ± 3.51 ^c %
Ct.Th (cortical bone thickness) [3, 7]: 165.52 ± 12.06 ^ac μm
N.OC/BS (osteoclast cell number, N/epiphyseal) [3, 7]: 6.63 ± 1.30 ^eg numbers
Tb.N (trabecular bone number, N/epiphyseal) [3, 7]: 15.38 ± 1.60 ^eg numbers
Tb.Th (trabecular bone thickness) [3, 7]: 68.14 ± 11.23 ^ac μm
BV/TV (trabecular bone volume) [3, 8]: 34.07 ± 3.89 ^c %
Ct.Th (cortical bone thickness) [3, 8]: 198.06 ± 12.51 ^c μm
N.OC/BS (osteoclast cell number, N/epiphyseal) [3, 8]: 5.63 ± 1.41 ^fg numbers
Tb.N (trabecular bone number, N/epiphyseal) [3, 8]: 16.63 ± 1.19 ^eg numbers
Tb.Th (trabecular bone thickness) [3, 8]: 71.98 ± 12.20 ^ac μm
fusion of OCs (Pre-OCs): did not affect
apoptosis of OCs (Mature OCs): had no effect on apoptosis
inhibitory activity on glucose oxidase (glucose oxidase): no inhibitory activities
Clt ([4]; IV 2 mg/kg): 250 ± 72.3 mL/h
oral availability ([4]; compared to Ewha-89403): high oral availability
AUC(0-inf) ([4]; rat, in vivo, IV 2 mg/kg): 2150 ± 693 ng·h/mL
AUC(0-t) ([4]; rat, in vivo, IV 2 mg/kg): 1770 ± 697 ng·h/mL
C0 ([4]; rat, in vivo, IV 2 mg/kg): 7480 ± 3420 ng/mL
Vd ([4]; rat, in vivo, IV 2 mg/kg): 1.52 ± 1.17 L
half-life ([4]; rat, in vivo, IV 2 mg/kg): 4.07 ± 2.28 h
bioavailability ([4]; rat, in vivo, IV 2 mg/kg and oral 20 mg/kg, read-out: Absolute Bioavailability (BA)): 63.8%
AUC(0-inf) ([4]; rat, in vivo, oral 20 mg/kg): 14400 ± 8170 ng·h/mL
AUC(0-t) ([4]; rat, in vivo, oral 20 mg/kg): 11300 ± 6470 ng·h/mL
Cmax ([4]; rat, in vivo, oral 20 mg/kg): 5010 ± 2510 ng/mL
Tmax ([4]; rat, in vivo, oral 20 mg/kg): 0.233 ± 0.171 h
half-life ([4]; rat, in vivo, oral 20 mg/kg): 14.4 ± 3.73 h
